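Results reflect a 48-hour exposure of cells in 96-well plates to compound at five concentrations. GI50 marks 50% less growth.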 Calls of active or inactive are those of the source. No stated cut-off is given here; in the data, active = GI50 up to about 1.1 µM and inactive = higher. Starred links: 1 amine or outer side, 2 acyl side, 3 side chain; linkers in the order of their positions; H or OH if unused. Positions of bridges follow the written chain, without caps; N, C: chain ends. Non-standard residues stand in square brackets, D forms with d. Residues, ends and D or L forms follow the SMILES beside them. ξ: configuration not given here. X11 = CCC(C)C(N[*:1])C(O)CC(=O)O[C@H](C(=O)C(C)C(=O)[*:2])C(C)C; X10 = O=C([C@@H]1CC(O)CN1[*:1])[*:2]; NMeY = CN[C@@H](Cc1ccc(O)cc1)C(=O)O; ξNMeL = CNC(CC(C)C)C(=O)O; ξT = CC(O)C(N)C(=O)O
Assays:
Experiment in all cases: NCI-60 cell line screen, 48 h
BT-549 = tested on: BT-549
CAKI-1 = tested on: CAKI-1
DU-145 = tested on: DU-145
EKVX = tested on: EKVX
HT-29 = tested on: HT-29
Hs-578T = tested on: Hs-578T
IGROV-1 = tested on: IGROV-1
LOX IMVI = tested on: LOX IMVI
MCF7 = tested on: MCF7
MDA-MB-231 = tested on: MDA-MB-231
MDA-MB-435 = tested on: MDA-MB-435
MDA-N = tested on: MDA-N
Malme-3M = tested on: Malme-3M
NCI-H522 = tested on: NCI-H522
NCI/ADR-RES = tested on: NCI/ADR-RES
PC-3 = tested on: PC-3
SNB-19 = tested on: SNB-19
SNB-75 = tested on: SNB-75
T47D = tested on: T47D

| Compound | GI50 (BT-549) | GI50 (CAKI-1) | GI50 (DU-145) | GI50 (EKVX) | GI50 (HT-29) | GI50 (Hs-578T) | GI50 (IGROV-1) | GI50 (LOX IMVI) | GI50 (MCF7) | GI50 (MDA-MB-231) | GI50 (MDA-MB-435) | GI50 (MDA-N) | GI50 (Malme-3M) | GI50 (NCI-H522) | GI50 (NCI/ADR-RES) | GI50 (PC-3) | GI50 (SNB-19) | GI50 (SNB-75) | GI50 (T47D) |
| --- | --- | --- | --- | --- | --- | --- | --- | --- | --- | --- | --- | --- | --- | --- | --- | --- | --- | --- | --- |
| O=C1CSC(c2ccc(Cl)cc2Cl)N1c1ccc(Oc2ccc(Cl)cc2)c(Cl)c1 (stereo not given) | 22.2 µM (inactive) | 22.4 µM (inactive) | 32.1 µM (inactive) | 23.3 µM (inactive) | 16.4 µM (inactive) | 14.7 µM (inactive) | 28.1 µM (inactive) | 16.7 µM (inactive) | 33.2 µM (inactive) | 19.4 µM (inactive) | 12.6 µM (inactive) | 21.7 µM (inactive) | 16.9 µM (inactive) | 10.4 µM (inactive) | 21.6 µM (inactive) | 27.8 µM (inactive) | 23.6 µM (inactive) | 20.7 µM (inactive) | 23.4 µM (inactive) |
| C[C@@]12CCC(=O)C=C1CC[C@H]1C2=CC[C@]2(C)C1CC[C@@]2(C)O (stereo not given in full) | 33.1 µM (inactive) | 48.3 µM (inactive) | > 100 µM (inactive) | > 100 µM (inactive) | 37.9 µM (inactive) | 38.2 µM (inactive) | 79.3 µM (inactive) | > 100 µM (inactive) | 57.3 µM (inactive) | 67.5 µM (inactive) | 23.3 µM (inactive) | 23 µM (inactive) | > 100 µM (inactive) | 28.1 µM (inactive) | 34.7 µM (inactive) | 41.5 µM (inactive) | > 100 µM (inactive) | 66.1 µM (inactive) | 73.5 µM (inactive) |
| CN(C)C(=S)SCC(N)=O | > 100 µM (inactive) | > 100 µM (inactive) | > 100 µM (inactive) | > 100 µM (inactive) | > 100 µM (inactive) | > 100 µM (inactive) | > 100 µM (inactive) | > 100 µM (inactive) | > 100 µM (inactive) | > 100 µM (inactive) | > 100 µM (inactive) | > 100 µM (inactive) | > 100 µM (inactive) | > 100 µM (inactive) | > 100 µM (inactive) | > 100 µM (inactive) | > 100 µM (inactive) | < 0.01 µM (active) | > 100 µM (inactive) |
| Cc1ccc([N+](=O)[O-])cc1S(=O)(=O)Nc1ccc(C2=NN(c3ccc([N+](=O)[O-])cc3[N+](=O)[O-])C(c3ccccc3)C2)cc1 (stereo not given) | 17.2 µM (inactive) | 22.8 µM (inactive) | 17.9 µM (inactive) | 18.6 µM (inactive) | 16.1 µM (inactive) | 21.9 µM (inactive) | 16.6 µM (inactive) | 17.1 µM (inactive) | 12.2 µM (inactive) | 14.9 µM (inactive) | 19.3 µM (inactive) | 16 µM (inactive) | 17.9 µM (inactive) | 10.1 µM (inactive) | 18.4 µM (inactive) | 14.3 µM (inactive) | 17.1 µM (inactive) | 22.5 µM (inactive) | 12.1 µM (inactive) |
| COc1cc2c(cc1O)CC[C@@H]1C2CC[C@@]2(C)C1CC[C@@H]2O (stereo not given in full) | 0.472 µM (active) | 13.5 µM (inactive) | 2.46 µM (inactive) | 6.17 µM (inactive) | 21 µM (inactive) | 1.14 µM (inactive) | 5.51 µM (inactive) | 2.89 µM (inactive) | 1.6 µM (inactive) | 3.4 µM (inactive) | 0.105 µM (active) | 0.103 µM (active) | 0.771 µM (active) | 0.482 µM (active) | 0.458 µM (active) | 6.24 µM (inactive) | 16.3 µM (inactive) | 1.07 µM (active) | 4.66 µM (inactive) |
| CCC(C)C1NC(=O)C(NC(=O)C(CC(C)C)N(C)C(=O)[C@@H]2CC(O)CN2)C(C)OC(=O)[C@H](Cc2ccc(OC)cc2)N(C)C(=O)[C@@H]2CCCN2C(=O)[C@H](CC(C)C)NC(=O)C(C)C(=O)[C@H](C(C)C)OC(=O)CC1O (stereo not given in full) (H-[X10][ξNMeL][ξT][X11]LP[NMeY](Me); ester 3-C) | 0.00609 µM (active) | 0.232 µM (active) | 0.0363 µM (active) | 0.01 µM (active) | 0.00445 µM (active) | < 0.001 µM (active) | 0.00272 µM (active) | 0.00311 µM (active) | < 0.001 µM (active) | 0.0224 µM (active) | 0.0102 µM (active) | 0.00561 µM (active) | 0.00336 µM (active) | 0.00488 µM (active) | 1.45 µM (inactive) | 0.0135 µM (active) | 0.00819 µM (active) | 0.0106 µM (active) | 0.0035 µM (active) |
| CC12CCC(O)CC1CCC1C2CCC2(C)C(C(=O)CC(O)C(F)(F)F)CCC12 (stereo not given) | > 78.3 µM (inactive) | 21 µM (inactive) | > 87.5 µM (inactive) | 40.4 µM (inactive) | 3.97 µM (inactive) | 23.9 µM (inactive) | > 67.8 µM (inactive) | 7 µM (inactive) | 31.2 µM (inactive) | 26.7 µM (inactive) | > 75 µM (inactive) | 61.1 µM (inactive) | 51.3 µM (inactive) | 27.1 µM (inactive) | 24.9 µM (inactive) | 30.6 µM (inactive) | 24.9 µM (inactive) | 19.3 µM (inactive) | 20.2 µM (inactive) |
| Fc1cccc(CSc2ncnc3c2ncn3C2CCCS2)c1 (stereo not given) | 21.7 µM (inactive) | 37.1 µM (inactive) | 17.4 µM (inactive) | 18.7 µM (inactive) | 15.5 µM (inactive) | 26.9 µM (inactive) | 22.4 µM (inactive) | 13.2 µM (inactive) | 22 µM (inactive) | 23 µM (inactive) | 18.5 µM (inactive) | 20.8 µM (inactive) | 21 µM (inactive) | 15.1 µM (inactive) | 25 µM (inactive) | 14.5 µM (inactive) | 36.2 µM (inactive) | 17.6 µM (inactive) | 29.3 µM (inactive) |
| COC1=C(C(c2cc(OC)c(OC)c(OC)c2)c2cc3c(cc2OC)OCO3)C(=O)OC1 (stereo not given) | 47.2 µM (inactive) | > 48.5 µM (inactive) | 29.2 µM (inactive) | 28.4 µM (inactive) | 20.5 µM (inactive) | 9.18 µM (inactive) | 29.4 µM (inactive) | 10 µM (inactive) | 29 µM (inactive) | 28.6 µM (inactive) | 4.66 µM (inactive) | 3.94 µM (inactive) | 31.7 µM (inactive) | 7.8 µM (inactive) | 5.69 µM (inactive) | 15.7 µM (inactive) | 30.7 µM (inactive) | > 37.9 µM (inactive) | > 100 µM (inactive) |
| CC(C)(C)c1ccc(-n2c3nc(=O)n(-c4ccccc4CO)c(=O)c-3cc3ccccc32)cc1 | 38.4 µM (inactive) | > 100 µM (inactive) | 42.4 µM (inactive) | 48.9 µM (inactive) | 26.6 µM (inactive) | 64.3 µM (inactive) | 71.9 µM (inactive) | 20.5 µM (inactive) | 65.6 µM (inactive) | 19.9 µM (inactive) | 36.1 µM (inactive) | 22.2 µM (inactive) | > 100 µM (inactive) | 32.7 µM (inactive) | 50 µM (inactive) | 39.7 µM (inactive) | 74.8 µM (inactive) | 26.2 µM (inactive) | 50 µM (inactive) |
